Measured values as given in patent US20210213010A1, “TLR7/8 AGONISTS AND LIPOSOME COMPOSITIONS” (Torque Therapeutics, Inc., priority 2018, published 2021).
Several values for one entry are separate records, joined by “and”; a condition that tells them apart may be missing. Identical values can stand only once. Entries after “also recorded” stand apart in the source; their conditions may differ.

Tests used:
[1] = Remote loading efficiency of small molecules into liposomes (PD-10 size exclusion, HPLC); format: physicochemical; conditions: for Remote loading efficiency 1 h (%) / Remote loading efficiency 3 h (%): mean (SD), n = 2
In short: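 A lyophilized small-molecule powder (modified TLR agonist) was combined with liposome formulation at the desired drug/lipid ratio and stirred at elevated temperature. At 1 h and 3 h, 100 μL of mixture plus 900 μL buffer (25 mM HEPES, 10 vol % sucrose, pH 7.4) went onto a PD-10 size exclusion column. Ten 1 mL fractions were collected, and HPLC quantified compound in the liposome fractions as a percentage of the amount applied.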

[2] = Cryo-TEM of remote loaded liposomes (intraliposomal precipitation); format: physicochemical; conditions: formulation F3, drug to lipid ratio 0.1
Protocol: CryoTEM samples of 3 μL of liposome solution was placed on a lacy carbon 300 mesh copper TEM grid, blotted and plunge frozen in liquid ethane using a FEI Vitrobot Mark IV. Samples were imaged using a FEI Tecnai G2 20 TWIN transmission electron microscope operated at 200 keV in low dose mode with a FEI High-Sensitive (HS) 4 k×4 k Eagle camera.

mTLR7 = molecular target: T1, mTLR7 (Mus musculus, UniProt P58681); experiment: NF-κB induction in HEK-Blue mTLR7 reporter cells; format: cell-based
T1 construct: host or cells: HEK-Blue (HEK293-derived) reporter cells
T1 sequence (P58681 27-1050): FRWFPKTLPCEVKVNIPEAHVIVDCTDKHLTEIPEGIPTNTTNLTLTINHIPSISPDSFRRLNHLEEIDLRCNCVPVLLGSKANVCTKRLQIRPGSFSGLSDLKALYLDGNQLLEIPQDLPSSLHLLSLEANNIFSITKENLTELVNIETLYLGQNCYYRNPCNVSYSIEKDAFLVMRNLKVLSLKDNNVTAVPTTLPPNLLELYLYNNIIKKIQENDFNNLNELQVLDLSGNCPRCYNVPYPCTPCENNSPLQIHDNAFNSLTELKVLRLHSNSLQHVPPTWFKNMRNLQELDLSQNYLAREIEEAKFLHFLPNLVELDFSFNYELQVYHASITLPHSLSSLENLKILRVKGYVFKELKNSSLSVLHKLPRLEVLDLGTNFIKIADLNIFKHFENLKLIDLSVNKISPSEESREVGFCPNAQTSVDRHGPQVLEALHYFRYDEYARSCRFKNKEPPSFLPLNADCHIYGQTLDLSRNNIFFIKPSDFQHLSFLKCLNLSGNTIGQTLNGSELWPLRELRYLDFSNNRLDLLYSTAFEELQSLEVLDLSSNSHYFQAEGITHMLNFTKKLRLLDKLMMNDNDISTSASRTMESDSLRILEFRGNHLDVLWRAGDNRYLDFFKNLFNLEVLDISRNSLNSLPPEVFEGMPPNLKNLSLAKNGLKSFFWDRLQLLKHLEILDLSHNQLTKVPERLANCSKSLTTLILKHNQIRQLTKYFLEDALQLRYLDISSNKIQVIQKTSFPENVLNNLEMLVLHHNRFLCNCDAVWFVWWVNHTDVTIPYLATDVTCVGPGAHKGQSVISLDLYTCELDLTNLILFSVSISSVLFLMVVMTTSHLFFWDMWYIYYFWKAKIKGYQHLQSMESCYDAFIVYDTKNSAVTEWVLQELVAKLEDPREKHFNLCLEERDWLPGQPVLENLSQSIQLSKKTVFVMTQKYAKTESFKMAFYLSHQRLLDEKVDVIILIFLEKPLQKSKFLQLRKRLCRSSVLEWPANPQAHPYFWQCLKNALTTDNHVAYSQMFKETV
Source text: This example describes the general procedure used to assess the compounds' potency to induce NF-κB expression in human embryonic kidney (HEK) cells. The transcription factor NF-κB is expressed upon stimulation of TLR7/8 and is commonly used for quantifying TLR7/8 agonist potencies in reporter cell assays. Conversely, we used HEK-Blue mTLR-7 cells to evaluate the potencies of the synthesized derivatives, as previously reported (Shukla et al, J. Med. Chem. (2010), 53, 4450-4465).
HEK-Blue TLR7 assays were carried out using HEK-Blue™ mTLR7 cells (Invivogen, Toulouse, France, Cat. #hkb-mtlr7). The assays were carried out according to the protocol from Invivogen. TLR expressing cells were cultured in DMEM high glucose (4.5 g/L) supplemented with 10% (v/v) fetal bovine serum (FBS) and 1% (v/v) penicillin-streptomycin (P/S) to 50 U/ml penicillin and […] streptomycin. On the day of the study, the cells were seeded in a 96-well plate (ThermoFisher Scientific, Roskilde, Denmark) with 20 μL imidazoquinoline TLR7/8 agonist solutions per well at varying concentrations by adding 180 μL cell suspension, made by suspending cells to 0.22×10^6 cells per mL in HEK-Blue™ Detection medium (Invivogen, Cat. #hb-det2) added Blasticidin (10 μg/ml) and Zeocin™ (100 μg/ml), leading to a final concentration of 40×10^3 cells per well in triplicates. Cells were incubated with the imidazoquinoline TLR7/8 agonists, formulated in liposomes or dissolved in PBS, at 37° C. with 5% CO2 for 16 h. The response was quantified spectrophotometrically at 655 nm and was normalized to the signal from a blank sample (DMSO dilution) run in parallel.

RAW-Blue cells = experiment: NF-κB induction in RAW-Blue reporter cells (RAW 264.7 macrophages, SEAP); format: cell-based; conditions: for EC50: RAW-Blue, sigmoidal 4PL fitting, 24 h; for Potency in the RAW-Blue cell assay: compared with R848
Source text: This example describes the general procedure used to assess the compounds' potency to induce NF-κB expression in RAW 264.7 macrophages cells that stably express secreted embryonic alkaline phosphatase (SEAP) upon induction of NF-κB. RAW-Blue™ reporter cells are commonly used for quantifying TLR7/8 agonist potencies in reporter cell assays. Conversely, we used RAW-Blue™ cells to evaluate the potencies of the synthesized derivatives, as previously reported^1. ^1 Ryu et al, J. Am. Chem. Soc. (2014), 136, 10823-10825
RAW 264.7 assays were carried out using RAW-Blue™ cells and QUANTI-Blue™ detection solution (Invivogen, Toulouse, France, at. #raw-sp and rep-qbs respectively). The assays carried out according to the protocol from Invivogen. RAW 264.7 macrophages were cultured in DMEM high glucose (4.5 g/L) supplemented with 10% (v/v) FBS, 1% (v/v) P/S, and Normocin™ (100 μg/ml). On the day of the study, the cells were seeded in a 96-well plate (ThermoFisher Scientific, Roskilde, Denmark) with 20 μL TLR7/8 agonist solutions per well at varying concentrations by adding 180 μL cell suspension, made by suspending cells to 0.55×10^6 cells per mL in the prepared cell medium added Zeocin™ (200 μg/ml), leading to a final concentration of 100×10^3 cells per well in triplicates. Cells were incubated with the TLR7/8 agonists, diluted from 10 mM DMSO stocks in PBS, at 37° C. with 5% CO2 for 24 h for SEAP production. 50 μL SEAP containing cell supernatant from each well was added 150 μL QUANTI-Blue™ detection solution and was incubated at 37° C. for 3-6 h. The resulting response was quantified spectrophotometrically at 640 nm and was normalized to the signal from a blank sample (DMSO dilution) run in parallel.
Half maximal effective concentration (EC50) values were determined from sigmoidal 4PL fittings from the resulting dose-response curves in GraphPad Prism.

[3] = formulation F3, drug/lipid ratio 0.10, 1 h
[4] = formulation F3, drug/lipid ratio 0.10, 3 h
[5] = formulation F3, drug/lipid ratio 0.25, 1 h
[6] = formulation F3, drug/lipid ratio 0.25, 3 h

Remote loading efficiency 1 h (%) [1, 3]	Remote loading efficiency 3 h (%) [1, 4]	Remote loading efficiency 1 h (%) [1, 5]	Remote loading efficiency 3 h (%) [1, 6]	Remote loading efficiency 1 h (%) ([1]; formulation F3, drug/lipid ratio 0.50, 1 h)	Remote loading efficiency 3 h (%) ([1]; formulation F3, drug/lipid ratio 0.50, 3 h)	Intraliposomal precipitation (Cryo-TEM) [2]	TLR7 agonist activity (NF-κB induction) (mTLR7; liposomal, formulation F3)	EC50 (RAW-Blue cells) [nM]	Loading efficiency ([1]; formulation F3, drug/lipid ratio 0.1, time not specified (within 3 h)) [%]	Remote loading efficiency 1 h (%) ([1]; formulation F4 (250 mM ammonium sulfate), drug/lipid ratio 0.10, 1 h)	Remote loading efficiency 3 h (%) ([1]; formulation F4 (250 mM ammonium sulfate), drug/lipid ratio 0.10, 3 h)	Remote loading efficiency 1 h (%) ([1]; formulation F4 (250 mM ammonium sulfate), drug/lipid ratio 0.25, 1 h)	Remote loading efficiency 3 h (%) ([1]; formulation F4 (250 mM ammonium sulfate), drug/lipid ratio 0.25, 3 h)	SMILES	Potency in the RAW-Blue cell assay (RAW-Blue cells)	TLR7 agonist activity (NF-κB induction) (mTLR7; free compounds, 16 h)
93.8 (5.8) %	96.7 (1.3) %	45.9 (1.9) %	48.9 (2.1) %	19.7 (0.4) %	20% and 19.5 (1.1) %	slight precipitation	potencies much higher than R848	30						CCCCc1nc2c(N)nc3ccccc3c2n1Cc1ccc(CN)cc1 [MK130, 1-(4-(aminomethyl)benzyl)-2-butyl-1H-imidazo[4,5-c]quinolin-4-amine]	the most potent compounds	
82.5 (1.2) % and 82.6 (1.2) %	86% and 86.2 (0.2) % and 86.2 (0.1) %	5% and 5.1 (0.1) %	0.5 (0.1) %			precipitated to form rod-like crystals	potencies much higher than R848	40	≤ 90	96.5 (3.3) %	100% and 100.0 (0.1) %	93% and 93.0 (5.7) %	96.5 (0.7) %	CCCCc1nc2c(N)nc3ccccc3c2n1Cc1ccc(CNC(=O)[C@@H](N)Cc2ccccc2)cc1 [MK138, (S)-2-amino-N-(4-((4-amino-2-butyl-1H-imidazo[4,5-c]quinolin-1-yl)methyl)benzyl)-3-phenylpropanamide]	greater potencies than R848	a higher response than both MK130 and R848 at 1 μM; also recorded: only little activity was observed at concentrations <0.32 μM
